Assay results taken from ChEMBL document CHEMBL3751807, “Design of High-Affinity Stapled Peptides To Target the Repressor Activator Protein 1 (RAP1)/Telomeric Repeat-Binding Factor 2 (TRF2) Protein-Protein Interaction in the Shelterin Complex” (J Med Chem, 2016).
One block for each compound: values may come before it.

Key:
[1] = Solubility of compound in phosphate buffer at 15 uM; assay type: physicochemical
[2] = Solubility of compound in phosphate buffer at 100 uM; assay type: physicochemical
[3] = target: T1, Telomeric repeat-binding factor 2-interacting protein 1 (Homo sapiens, UniProt Q9NYB0); test: Competitive binding to RAP1 (unknown origin) incubated for 1 hr by fluorescence polarization-based binding assay
T1 sequence (Q9NYB0 whole entry): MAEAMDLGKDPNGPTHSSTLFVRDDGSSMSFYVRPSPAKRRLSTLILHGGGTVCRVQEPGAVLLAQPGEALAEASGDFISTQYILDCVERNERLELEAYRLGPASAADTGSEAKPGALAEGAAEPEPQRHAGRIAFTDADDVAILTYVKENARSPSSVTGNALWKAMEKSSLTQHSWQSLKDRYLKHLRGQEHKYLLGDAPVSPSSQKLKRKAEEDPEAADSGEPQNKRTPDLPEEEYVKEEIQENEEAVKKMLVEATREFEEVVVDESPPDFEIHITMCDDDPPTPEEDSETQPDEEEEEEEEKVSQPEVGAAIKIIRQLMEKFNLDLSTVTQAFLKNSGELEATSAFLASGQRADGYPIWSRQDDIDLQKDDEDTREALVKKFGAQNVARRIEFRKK

solubility [1]: Insoluble
Compound: C#CC[C@@H](NC(=O)[C@H](CCCCN)NC(=O)[C@H](Cc1ccccc1)NC(=O)[C@H](C)NC(=O)[C@H](CCCCN=[N+]=[N-])NC(=O)[C@H](CCCCN)NC(=O)[C@H](CC(C)C)NC(=O)[C@@H](NC(=O)[C@H](CCSC)NC(=O)[C@H](CCSC)NC(=O)CNC(=O)[C@@H](NC(=O)[C@@H](NC(=O)[C@@H](NC(C)=O)[C@@H](C)O)[C@@H](C)O)[C@@H](C)CC)[C@@H](C)O)C(=O)N[C@@H](CC(C)C)C(=O)N[C@@H](CO)C(N)=O

solubility [2]: soluble
Compound: CC[C@@H](C)[C@H](NC(=O)[C@@H](NC(=O)[C@@H](NC(C)=O)[C@@H](C)O)[C@@H](C)O)C(=O)NCC(=O)N[C@@H](CCSC)C(=O)N[C@@H](CCSC)C(=O)N[C@H](C(=O)N[C@@H](CC(C)C)C(=O)N[C@@H](CCCCN)C(=O)N[C@@H]1CCCCn2cc(nn2)C[C@H](C(=O)N[C@@H](CC(C)C)C(=O)N[C@H](CO)C(N)=O)NC(=O)[C@@H](CCCCN)NC(=O)[C@@H](Cc2ccccc2)NC(=O)[C@H](C)NC1=O)[C@@H](C)O (stereo in doubt)

IC50 [3]: > 200 µM
Compound: Ac-TTIGMKTLKAAFKT-NH2
